Oligonucleotides are written 5' to 3', each unit as a sugar letter and its base; * is a phosphorothioate linkage, no mark a phosphodiester; rarer units and linkages stand in square brackets, end groups in braces. Plain capitals give the bases only. e = 2'-O-(2-methoxyethyl) (MOE); [5mC] = 5-methylcytosine; d = 2'-deoxy (DNA)
Legend:
Mouse STAT3 protein = assay: STAT3 protein levels in BCL1 cells by Western blot, dose response; assay type: cell-based; details: compared with mismatch control
Method: ISIS 17152 (SEQ ID. NO. 99) was chosen for further study. The effect of this oligonucleotide on protein levels was determined by Western blot. ISIS 23177 (SEQ ID NO. 106), a 3 base mismatch, was used as a control. BCL1 cells were grown, treated and processed as described in Example 2.
Nuclear extracts from primary B cells and B lymphoma cell lines were prepared as described in Karras, J. G., et al. (J. Exp. Med., 1997, 185, 1035-1042).
Western blotting was performed as described in Karras, J. G. et al. (J. Immunol., 1996, 157, 2299). STAT1 and STAT3 antibodies were obtained from UBI (Lake Placid, N.Y.).

BCL1 cells = assay: BCL1 cell proliferation, [3H]-thymidine incorporation; assay type: cell-based, mouse; details: summary of Table 6
Method: The effect of ISIS 17152 (SEQ ID NO. 99) on BCL1 proliferation was determined. BCL1 cells contain constitutively active STAT3 which is thought to be responsible for their proliferation. BCL1 cells were grown, treated and processed as described in Example 2.
1×10^5 BCL1 cells were incubated in 96-well plates in […] complete RPMI following electroporation. Cultures were pulsed with […] of [^3H]-thymidine for the last 8 hours of culture and cells were harvested and analyzed for thymidine incorporation as described in Francis, D. A. et al. (Int. Immunol., 1995, 7, 151-161) 48 hours after electroporation.

[1] = test system: IgM secretion by BCL1 cells; assay: BCL1 IgM secretion, ELISA; assay type: cell-based, mouse; details: compared with mismatch control
Method: The effect of ISIS 17152 (SEQ ID. NO. 99) on IgM secretion levels was determined. STAT3 has been implicated in regulation of IgM expression (Faris, M., et al., Immunology, 1997, 90, 350-357). BCL1 cells were grown, treated and processed as described in Example 2.
1×10^6 BCL1 cells were incubated in 12-well plates in 2 mL complete RPMI following electroporation. Supernatant was replaced at 24 hour post electroporation with fresh medium. 48 hours later, supernatants were harvested, centrifuged to remove cells, and assayed for IgM content using the OPT-EIA™ ELISA kit (Pharmingen, San Diego, Calif.) and capture and detecting antibodies for mouse IgM (Southern Biotechnology, Birmingham, Ala.).

RANTES mRNA = assay: Induction of chemokines in BCL1 cells, RNase protection assay: RANTES; assay type: cell-based, mouse; details: statement covers all three chemokines
Method: The effect of ISIS 17152 (SEQ ID. NO. 99) on chemokine levels was determined. BCL1 cells were grown, treated and processed as described in Example 2. Chemokine gene expression was induced in BCL1 cells by addition of […] of a CpG-containing oligonucleotide to the media 16 hours following antisense oligonucleotide electroporation. CpG-containing oligonucleotides are immune-stimulatory (Krieg, A. M., et al., Nature, 1995, 374, 546-549). The levels of chemokines were measured eight hours later using RNase protection assay as described in Example 2 with a mouse chemokine template set, Mck-5 (Pharmingen, San Diego, Calif.).

Mouse B16 melanoma cells = assay: Cell number of B16 melanoma cells after antisense treatment; assay type: cell-based; details: 24 hours after transfection
Method: Mouse B16 melanoma cells were grown in RPMI 1640 (Life Technologies, Inc., Grand Island, N.Y.) medium supplemented with 10% fetal bovine serum, 2 mM L-glutamine, 1 mM sodium pyruvate, 1% MEM nonessential amino acids and 100 IU/ml penicillin/streptomycin.
(§1) Cells were treated with ISIS 17152, targeted to mouse STAT3, or the 3-base mismatch control, ISIS 28084 ([…]; SEQ ID NO: 151). Cells were transfected with oligonucleotide using LipofectAMINE PLUSJ reagent (GibcoBRL). Oligonucleotide was pre-complexed with LipofectAMINE PLUSJ by adding the oligonucleotide to 100 μl serum-free RPMI 1640 medium, then 6 μl LipofectAMINE PLUSJ reagent was added, the sample was mixed well and incubated for 15 minutes at room temperature. An additional 4 μl of LipofectAMINE PLUSJ reagent was diluted to 100 μl in serum-free RPMI. This diluted LipofectAMINE PLUSJ was mixed with the pre-complexed oligonucleotide/LipofectAMINE PLUSJ mixture and incubated for 15 minutes at room temperature. 800 μl of serum-free RPMI 1640 was added, and the resulting oligonucleotide-LipofectAMINE PLUSJ-medium mixture (approximately 1 ml) was added to cells in a 6-well plate. After 3 hours incubation, 1 ml of RPMI 1640 supplemened with 20% fetal bovine serum was added. Oligonucleotide concentrations were 200 nM or 300 nM.
24 hours after transfection, cells were counted to determine the effect of antisense treatment on cell death. Cells were harvested at 24 hours post transfection for western blot analysis and at 48 hours post-transfection for Annexin-V staining for apoptosis.

B16 cells = assay: Apoptosis in B16 cells, Annexin V-PE staining and flow cytometry; assay type: cell-based, mouse
Method: as §1
24 hours after transfection, cells were counted to determine the effect of antisense treatment on cell death. […]
Apoptosis in B16 cells was measured by staining with Annexin V-PE (Clontech) and flow cytometry analysis 48 hours after antisense treatment. […]

STAT3 protein = STAT3 protein in B16 cells, Western blot; assay type: cell-based, mouse; details: 200 nM or 300 nM, 24 hours after treatment
Method: as §1
24 hours after transfection, cells were counted to determine the effect of antisense treatment on cell death. Cells were harvested at 24 hours post transfection for western blot analysis and at 48 hours post-transfection for Annexin-V staining for apoptosis. […]

AAAAAGTGCCCAGATTGCCC (antisense eA*eA*eA*eA*eA*dG*dT*dG*dC*dC*dC*dA*dG*dA*dT*eT*eG*e[5mC]*e[5mC]*e[5mC]) [ISIS 17152]
reducing STAT3 protein levels (in words) (Mouse STAT3 protein): significantly better at reducing STAT3 protein levels than the mismatch control
reduction of BCL1 cell proliferation (BCL1 cells): approximately 50%
reducing IgM secretion (in words) [1]: significantly better at reducing IgM secretion than the mismatch control
expression of the chemokines, RANTES, MIP-1 and MIP-1 (in words) (RANTES mRNA): able to induce the expression of the chemokines
cell number (Mouse B16 melanoma cells; 200 nM, Expt 1): 3.8 × 10^5
cell number (Mouse B16 melanoma cells; 200 nM, Expt 2): 6.8 × 10^5
cell number (Mouse B16 melanoma cells; 200 nM, Expt 3): 1.8 × 10^5
cell number (Mouse B16 melanoma cells; 300 nM, Expt 2): 3.5 × 10^5
cell number (Mouse B16 melanoma cells; 300 nM, Expt 3): 2.2 × 10^5
cells staining positive for Annexin-V (B16 cells; 48 hours after antisense treatment): 29.84%
increase in apoptotic cells (B16 cells; versus mock and control oligonucleotide): nearly threefold increase
STAT3 protein production (in words) (STAT3 protein): significantly reduced
